Assay results: paper PMC11674305, “Inhibition of Neural Crest Cell Migration by Strobilurin Fungicides and Other Mitochondrial Toxicants” (Cells, 2024)

Legend:
Type in all cases: cell-based, human
neural crest cells (NCC) [1] = experiment: cMINC (UKN2) assay: circular migration of neural crest cells, with viability; settings: for Ratio: migration/cytotoxicity ratio, hit requires ≥ 1.3, HTC used where no viability effect
Protocol: The research group initially developed the first version of the test in 2012 [40]. The test has been further improved and characterized. To perform the cMINC assay, NCCs were thawed in N2-S Medium and seeded on the day of migration-1 (DoM-1) on a 96-well polystyrene plate (Corning, Glendale, AZ, USA) around stoppers, to create a cell-free area of 2 mm diameter (Platypus Technologies, Madison, WI, USA). The cells were resuspended in N2-S Medium supplemented with […] of the cytokines EGF and FGF, and then counted and seeded around the stoppers at a density of 95,000 cells/cm^2. After 24 h, the stoppers were removed, and the medium was exchanged. The removal of the stoppers initiates migration of the NCCs into the cell-free area. For the treatment, the 5x-concentrated toxicant solution was added to the medium 24 h after stopper removal.
On day 2, cells were stained with 533 nM calcein-AM and 1 μg/mL H-33342 (both from Sigma, Steinheim, Germany) and observed using two different channels on the Cellomics ArrayScan VTI imaging microscope (Thermo Fisher, Pittsburgh, PA, USA) to assess viability and migration. For the migration, four pictures were taken in the region of interest (ROI) (5× magnification objective). Migration data were obtained using the software “Ringassay” (http://invitrotox.uni-konstanz.de/ (accessed on 3 November 2024)), which can estimate the previously cell-free area and count the number of H-33342 and calcein-AM double-positive cells. Cell viability was assessed by taking four pictures outside of the ROI with 10× magnification objective. Viable cells were defined as H-33342 and calcein-AM double-positive cells and calculated by an automatic algorithm of the ArrayScan VTI 700 Series software as described earlier. […] Each plate included wells for testing of negative (0.1% DMSO solvent) and positive controls (200 nM cytochalasin D) in addition to the wells for blinded samples. The data from control wells were used as acceptance criteria of the assay. […] Renormalization of the concentration–response curves was performed after a visual inspection that the two lowest test-concentration data points are in the no-effect range. The average response (relative to solvent control) of the lowest two test concentrations was calculated, and all other data points of the same curve were divided by this average value. The calculations of the benchmark concentrations 10 for viability (BMC10 (V)) and 25 for migration (BMC25 (M)) were performed with the online available BMC software (http://invitrotox.uni-konstanz.de/ (accessed on 4 November 2024)).

neural crest cells (NCC) [2] = experiment: Seahorse oxygen consumption rate (mitochondrial stress test)
Protocol: The Seahorse bioanalyzer simultaneously measures cellular oxygen consumption rates (OCR) and extracellular acidification rates (ECAR). Therefore, NCCs were seeded at least two days prior to the assays at a density of 80,000 cells/well on Seahorse XF96 V3 PS Cell Culture Microplates (Agilent, Santa Clara, CA, USA) in either glucose medium or galactose medium. After 24 h, the medium was exchanged. For the real-time ATP production rate and mitochondrial stress assay, the cartridge was hydrated at 0% CO2 and 37 °C, and the seahorse was turned on to stabilize the temperature one day prior. The medium was changed to Seahorse XF DMEM Medium (Agilent, Santa Clara, CA, USA) supplemented with 2 mM L-glutamine, 1 mM pyruvate and 18 mM glucose or galactose 1 h before the start of the assays. Directly before the start of the assay, the medium was exchanged again. The sensor cartridge was loaded with the test compounds anchored to the BMC10 (V) of the cMINC screen and the recommended concentrations of calibration compounds for a mitochondrial stress test. These were 5 μM oligomycin, 15 μM carbonyl cyanide p-trifluoro methoxyphenylhydrazone (FCCP) and 5 μM rotenone plus 5 μM antimycin A. Additionally, 1 μg/mL H-33342 was added to the rotenone and antimycin A injection to perform afterwards a cell count (Cellomics, Waltham, MA, USA), to which the data were normalized. Six technical replicates were used for control conditions, and three technical replicates were used for other samples. The software Seahorse Analytics (Agilent, Santa Clara, CA, USA) was used for the evaluation (https://seahorseanalytics.agilent.com (accessed on 30 October 2024)).

complex I (cI) = experiment: Electron transport chain complex activity in permeabilized NCC (Seahorse); settings: 60 μM, due to block of cIII
Text: (§1) Magel et al. (2024): Inhibition of neural crest cells migration by strobilurin fungicides
(§2) Figure S9. Inhibition of electron transport chain complexes by picoxystrobin in neural crest […]
(§3) NCC were exposed to the BMC10(V) of the cMINC assay (60 μ M). The grey area indicates th e non-significant range of the assay (≤ 25% change). The effect on complex IV (cIV) was non-significant (green bar). The purple bar indicates complex III (cIII) inhibition. Yellow bars […]
(§4) that for these assays, the electrons have to pass cIII to reach cIV (oxygen consumption), i.e. electrons from cI (or cII) cannot be used for the reduction of oxygen, as they need to flow through cIII (which is blocked). The pattern of inhibition is indicative of cIII as illustrated earlier (Delp et al., 2019; van der Stel et al., 2020).
(§5) To investigate the inhibition pattern of picoxystrobin, NCC were permeabilized and complex-specific substrates and inhibitors were sequentially injected as described earlier (Delp et al., 2019). In detail, cells were permeabilized with MAS buffer (220 mM mannitol, 1 mM ADP, 70 mM sucrose, 10 mM KH2PO4, 5 mM MgCl2, 2 mM HEPES, 1 mM EGTA, 4 mg/ml fatty acid-free BSA, pH = 7.2) supplemented with 25 μ g/mL digitonin. Seahorse measurements were started directly afterwards, and basal OCRs were assessed for internal normalization. Then picoxystrobin was injected and cI activity was assessed. For this, cII was inhibited (5 mM malonat) and substrates for cI (2 mM […], 2.5 mM malic acid, 5 mM pyruvic acid) […]
(§6) were added. […] Next, cI was […]
(§7) inhibited (0.5 μ M rotenone) and substrates of cIII (250 μM duroquinol ) were added. At this step, cIII inhibition data for cIII were obtained. In the case of a cI inhibition (e.g. by rotenone), […]
(§8) To assess cII activity, cI was inhibited and the substrate of cII (10 mM succinic acid) was added.
(§9) Lastly, to assess cIV activity, cII was inhibited and the substrates of cIV (125 μ M TMPD, 2 mM ascorbic acid) were added. Data were compared to the solvent control. Details and assay validation have been provided earlier (Delp et al., 2019; van der Stel et al., 2020). […]

complex II (cII) = experiment: as above; settings: 60 μM, due to block of cIII
Text: as §1, §2, §3, §4, §5, §6, §7, §8, §9

complex IV (cIV) = experiment: as above; settings: 60 μM (BMC10(V) of cMINC)
Text: as §1, §2, §3, §4, §5, §6, §7, §8, §9

Question: How did the Migration (neural crest cells (NCC) [1]; Pre-Screen 1, single concentration 1:1000 of stock, in most cases 100 μM) turn out when CO/C=C(/C(=O)OC)c1ccccc1COc1cccc(C(F)(F)F)n1 [Picoxystrobin, picoxystrobin] was run?
Answer: 65 % of control

Question: What about the “effect of 1% HSA on inhibition of NCC migration” value (neural crest cells (NCC) [1]; medium supplemented with 1% human serum albumin) of the same molecule?
Answer: did not alter the effect

Question: And the “BMC25 (M)” value (neural crest cells (NCC) [1]; migration, primary screen, 24 h exposure)?
Answer: 1e-05 M

Question: And the Ratio (neural crest cells (NCC) [1])?
Answer: 6.0

Question: What about the Ratio (neural crest cells (NCC) [1]; listed as BC2) of the same molecule?
Answer: 6.1

Question: What about the “lowering of OCR POD by 24 h pre-treatment” value (neural crest cells (NCC) [2]; 24 h pre-treatment vs acute exposure) of the same molecule?
Answer: 10 fold

Question: What about the “BMC25 (OCR), POD” value (neural crest cells (NCC) [2]; 24 h pre-treatment, galactose medium) of the same molecule?
Answer: 0.4 µM

Question: And the “effect on complex I (cI)” value (complex I (cI))?
Answer: apparent inhibition

Question: And the “effect on complex II (cII)” value (complex II (cII))?
Answer: apparent inhibition

Question: And the “effect on complex IV (cIV)” value (complex IV (cIV))?
Answer: non-
